The target of this assay is Human immunodeficiency virus type 1 protease (Human immunodeficiency virus 1, UniProt Q72874, V82A). Description: Tested for inhibitor binding of Val82Ala mutant of HIV PR. The arrangement: species or system human immunodeficiency virus type1.

As a reminder, the Ki is a measure of affinity in units of concentration, obtained from inhibition or displacement. Read a low Ki as tighter binding.

For `NC(=O)[C@H](CCC(=O)O)NC(=O)[C@H](CCC(=O)O)NC(=O)[C@H](Cc1ccccc1)NC(=O)[C@H](O)[C@H](Cc1ccccc1)NC(=O)OCc1ccccc1`, the affinity corresponds to a Ki of 0.11 nM.

The values are drawn from ChEMBL document CHEMBL1148439, “A phenylnorstatine inhibitor binding to HIV-1 protease: geometry, protonation, and subsite-pocket interactions analyzed at atomic resolution” (J Med Chem, 2004).
